According to ChEMBL document CHEMBL2169878 (J Med Chem, 2012):
Activity calls are given as the source filed them. The calls are words filed in the database; no cut-off is given here.

Tests used:
Plasmodium falciparum [1] = assay: Antiplasmodial activity against chloroquine-sensitive Plasmodium falciparum D10 infected in human RBC after 72 hrs by parasite lactate dehydrogenase assay; type: functional, organism-based; details: D10, 72 h
Plasmodium falciparum [2] = assay: Antiplasmodial activity against chloroquine-resistant Plasmodium falciparum W2 infected in human RBC after 72 hrs by parasite lactate dehydrogenase assay; type: functional, organism-based; details: W2, 72 h
Plasmodium falciparum [3] = assay: Antiplasmodial activity against chloroquine-sensitive Plasmodium falciparum NF54 infected in human erythrocytes assessed as inhibition of [3H]hypoxanthine incorporation incubated for 48 hrs prior to [3H]hypoxanthine addition measured after 48 hrs by liquid scintillation counting; type: functional, organism-based
Plasmodium falciparum [4] = assay: Antiplasmodial activity against chloroquine-resistant Plasmodium falciparum K1 infected in human erythrocytes assessed as inhibition of [3H]hypoxanthine incorporation incubated for 48 hrs prior to [3H]hypoxanthine addition measured after 48 hrs by liquid scintillation counting; type: functional, organism-based
Plasmodium falciparum [5] = assay: Resistance ratio of IC50 for chloroquine-resistant Plasmodium falciparum W2 to IC50 for chloroquine-sensitive Plasmodium falciparum D10; type: functional
Plasmodium falciparum [6] = assay: Resistance ratio of IC50 for chloroquine-resistant Plasmodium falciparum K1 to IC50 for chloroquine-sensitive Plasmodium falciparum NF54; type: functional
[7] = biological target: T1, Chloroquine resistance transporter (Plasmodium falciparum) (UniProt Q9N623); assay: Inhibition of chloroquine-resistant Plasmodium falciparum Dd2 CRT expressed in Xenopus laevis oocyte assessed as inhibition of [3H]chloroquine uptake at 100 uM measured from 1 to 2 hrs
T1 sequence (whole entry): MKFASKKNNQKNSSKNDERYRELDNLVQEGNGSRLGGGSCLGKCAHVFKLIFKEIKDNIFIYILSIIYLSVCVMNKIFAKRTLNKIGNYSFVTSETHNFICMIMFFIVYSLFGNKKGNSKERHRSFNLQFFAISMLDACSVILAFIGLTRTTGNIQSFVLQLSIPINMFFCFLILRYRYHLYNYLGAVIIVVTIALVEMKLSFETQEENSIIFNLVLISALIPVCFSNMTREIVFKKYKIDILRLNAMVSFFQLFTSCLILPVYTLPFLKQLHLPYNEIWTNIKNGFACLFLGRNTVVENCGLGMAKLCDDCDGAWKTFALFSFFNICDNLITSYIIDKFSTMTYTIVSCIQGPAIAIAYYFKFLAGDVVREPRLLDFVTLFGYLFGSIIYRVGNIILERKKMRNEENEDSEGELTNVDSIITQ

Salmonella typhimurium [8] = assay: Mutagenicity against Salmonella typhimurium TA98 assessed as revertants at 24 uM incubated for 90 mins followed by drug washout measured after 2 days relative to positive control; type: toxicity, organism-based; details: salmonella enterica subsp. enterica serovar typhimurium, 1.5 h
Salmonella typhimurium [9] = assay: Mutagenicity against Salmonella typhimurium TA98 assessed as revertants at 16 uM incubated for 90 mins followed by drug washout measured after 2 days relative to positive control; type: toxicity, organism-based; details: salmonella enterica subsp. enterica serovar typhimurium
Salmonella typhimurium [10] = assay: Mutagenicity against Salmonella typhimurium TA98 assessed as revertants at 40 uM incubated for 90 mins followed by drug washout measured after 2 days relative to positive control; type: toxicity, organism-based; details: salmonella enterica subsp. enterica serovar typhimurium
Salmonella typhimurium [11] = assay: Mutagenicity against Salmonella typhimurium TA98 assessed as revertants at 80 uM incubated for 90 mins followed by drug washout measured after 2 days relative to positive control; type: toxicity, organism-based; details: salmonella enterica subsp. enterica serovar typhimurium, 1.5 h
Salmonella typhimurium [12] = assay: Mutagenicity against Salmonella typhimurium TA100 assessed as revertants at 2 uM incubated for 90 mins followed by drug washout measured after 2 days relative to positive control; type: toxicity, organism-based; details: salmonella enterica subsp. enterica serovar typhimurium
Salmonella typhimurium [13] = assay: Mutagenicity against Salmonella typhimurium TA100 assessed as revertants at 4 uM incubated for 90 mins followed by drug washout measured after 2 days relative to positive control; type: toxicity, organism-based; details: salmonella enterica subsp. enterica serovar typhimurium, 1.5 h
Salmonella typhimurium [14] = assay: Mutagenicity against Salmonella typhimurium TA100 assessed as revertants at 24 uM incubated for 90 mins followed by drug washout measured after 2 days relative to positive control; type: toxicity, organism-based; details: salmonella enterica subsp. enterica serovar typhimurium
Salmonella typhimurium [15] = assay: Mutagenicity against Salmonella typhimurium TA100 assessed as revertants at 16 uM incubated for 90 mins followed by drug washout measured after 2 days relative to positive control; type: toxicity, organism-based; details: salmonella enterica subsp. enterica serovar typhimurium
Salmonella typhimurium [16] = assay: Mutagenicity against Salmonella typhimurium TA100 assessed as revertants at 40 uM incubated for 90 mins followed by drug washout measured after 2 days relative to positive control; type: toxicity, organism-based; details: salmonella enterica subsp. enterica serovar typhimurium
Salmonella typhimurium [17] = assay: Mutagenicity against Salmonella typhimurium TA100 assessed as revertants at 80 uM incubated for 90 mins followed by drug washout measured after 2 days relative to positive control; type: toxicity, organism-based; details: salmonella enterica subsp. enterica serovar typhimurium
Plasmodium berghei [18] = assay: Antimalarial activity against Plasmodium berghei ANKA expressing GFP infected in mouse assessed as reduction in parasitemia at 100 mg/kg, po administered 24 hrs post-infection measured 48 hrs post-dosing by flow cytometric analysis; type: functional; set-up: scale not given: the % may be the effect or the level left
Plasmodium berghei [19] = assay: Antimalarial activity against Plasmodium berghei ANKA expressing GFP infected in mouse assessed as reduction in parasitemia at 30 mg/kg, po administered 24 hrs post-infection measured 48 hrs post-dosing by flow cytometric analysis; type: functional; set-up: scale not given: the % may be the effect or the level left
Plasmodium berghei [20] = assay: Antimalarial activity against Plasmodium berghei ANKA expressing GFP infected in mouse assessed as mean survival days at 100 mg/kg, po administered 24 hrs post-infection (reference value: 6 to 7 days); type: functional
Plasmodium berghei [21] = assay: Antimalarial activity against Plasmodium berghei ANKA expressing GFP infected in mouse assessed as mean survival days at 30 mg/kg, po administered 24 hrs post-infection (reference value: 6 to 7 days); type: functional
Plasmodium berghei [22] = assay: Antimalarial activity against Plasmodium berghei ANKA expressing GFP infected in mouse assessed as cure from infection at 100 mg/kg, po administered 24 hrs post-infection measured on day 30; type: functional, organism-based; set-up: dose 100 mg/kg
Plasmodium berghei [23] = assay: Antimalarial activity against Plasmodium berghei ANKA expressing GFP infected in mouse assessed as cure from infection at 30 mg/kg, po administered 24 hrs post-infection measured on day 30; type: functional, organism-based; set-up: dose 30 mg/kg
[24] = Cytotoxicity against mouse NIH3T3 cells after 24 hrs by neutral red dye uptake assay; type: cell-based; details: read-out: TC50
[25] = Cytotoxicity against human HepG2 cells after 24 hrs by neutral red dye uptake assay; type: cell-based; details: read-out: TC50
Salmonella typhimurium [26] = assay: Mutagenicity against Salmonella typhimurium TA98 assessed as revertants at 2 uM incubated for 90 mins followed by drug washout measured after 2 days relative to positive control; type: toxicity, organism-based; details: salmonella enterica subsp. enterica serovar typhimurium, 1.5 h
Salmonella typhimurium [27] = assay: Mutagenicity against Salmonella typhimurium TA98 assessed as revertants at 4 uM incubated for 90 mins followed by drug washout measured after 2 days relative to positive control; type: toxicity, organism-based; details: salmonella enterica subsp. enterica serovar typhimurium
[28] = biological target: Chloroquine resistance transporter (Plasmodium falciparum, UniProt Q9N623); assay: Inhibition of chloroquine-resistant Plasmodium falciparum Dd2 CRT expressed in Xenopus laevis oocyte assessed as inhibition of [3H]chloroquine uptake measured from 1 to 2 hrs

| Structure (SMILES) | IC50 (Plasmodium falciparum [1]) | IC50 (Plasmodium falciparum [2]) | IC50 (Plasmodium falciparum [3]) | IC50 (Plasmodium falciparum [4]) | Ratio IC50 (Plasmodium falciparum [5]) | inhibition [7] | other results |
| --- | --- | --- | --- | --- | --- | --- | --- |
| Clc1cccc(C(Nc2ccnc3cc(Cl)ccc23)c2ccc(CN3CCCC3)c(Cl)c2)c1 (racemic) | 57 nM | 50 nM | 13 nM | 19 nM | – | – | – |
| Clc1ccc(C(Nc2ccnc3cc(Cl)ccc23)c2ccc(CN3CCCC3)cc2)cc1 (racemic) | – | – | – | – | 1.6 | 70% | Ratio IC50 (Plasmodium falciparum [6]): 1.1 |
| Clc1ccc(C(c2ccc(Cl)cc2)(c2ccc(CN3CCCC3)cc2)N2CCN(c3ccnc4cc(Cl)ccc34)CC2)cc1 | 277 nM | 582 nM | 91 nM | 92 nM | – | 42% | – |
| COc1ccc2nccc(NC(c3ccc(Cl)cc3)c3ccc(CN4CCCC4)c(F)c3)c2c1 (racemic) | 58 nM | 69 nM | 25 nM | 33 nM | – | – | – |
| Clc1ccc(C(Nc2ccnc3cc(Cl)ccc23)c2ccc(CN3CCCC3)c(Cl)c2)cc1 (racemic) | 8.4 nM | 28 nM | – | – | – | 70% | Activity (Salmonella typhimurium [8]): 10%; Activity (Salmonella typhimurium [9]): 3%; Activity (Salmonella typhimurium [10]): 10%; Activity (Salmonella typhimurium [11]): 0%; Activity (Salmonella typhimurium [12]): 4%; Activity (Salmonella typhimurium [13]): 3%; Activity (Salmonella typhimurium [14]): 4%; Activity (Salmonella typhimurium [15]): 1%; Activity (Salmonella typhimurium [16]): 8%; Activity (Salmonella typhimurium [17]): 1%; Activity (Plasmodium berghei [18]): 99.5%; Activity (Plasmodium berghei [19]): 99.4%; MSD (Plasmodium berghei [20]): 14 days; MSD (Plasmodium berghei [21]): 7.7 days; Activity (Plasmodium berghei [22]): inactive; Activity (Plasmodium berghei [23]): inactive; CC50 at 24 h [24]: 16000 nM; CC50 at 24 h [25]: 4000 nM; Activity (Salmonella typhimurium [26]): 17%; Activity (Salmonella typhimurium [27]): 0% |
| Clc1ccc(C(Nc2ccnc3cc(Cl)ccc23)c2ccc(CN3CCN(Cc4ccc(C(Nc5ccnc6cc(Cl)ccc56)c5ccc(Cl)cc5)cc4)CC3)cc2)cc1 (racemic) | 190 nM | 98 nM | 89 nM | 56 nM | 0.5 | – | Ratio IC50 (Plasmodium falciparum [6]): 0.6 |
| CC(C)(C)NC(=O)[C@@H]1C[C@@H]2CCCC[C@@H]2CN1C[C@@H](O)[C@H](Cc1ccccc1)NC(=O)[C@H](CC(N)=O)NC(=O)c1ccc2ccccc2n1 | – | – | – | – | – | – | IC50 [28]: 13000 nM |
| Clc1ccc(C(c2ccc(CN3CCCC3)cc2)N2CCN(c3ccnc4cc(Cl)ccc34)CC2)cc1 (racemic) | 631 nM | 735 nM | 88 nM | 156 nM | – | 58% | – |
| COc1ccc2nccc(NC(c3ccc(Cl)cc3)c3ccc(CN4CCNCC4)cc3)c2c1 (racemic) | 67 nM | 163 nM | 21 nM | 58 nM | 2.4 | – | Ratio IC50 (Plasmodium falciparum [6]): 2.8 |
| CN1CCN(Cc2ccc(C(Nc3ccnc4cc(Cl)ccc34)c3ccc(Cl)cc3)cc2)CC1 (racemic) | 21 nM | 42 nM | – | – | 2 | Active | – |
| COc1ccc2nccc(NC(c3cccc(Cl)c3)c3ccc(CN4CCCC4)c(F)c3)c2c1 (racemic) | 41 nM | 101 nM | – | – | – | – | – |
